Results taken from patent US10214507B2, “Carbazole-containing amides, carbamates, and ureas as cryptochrome modulators” (Reset Therapeutics, Inc., priority 2014, dated 2019).
Where two headings read alike, the source gives them in different places.

Key:
[1] = Pharmacokinetic analysis in SD rats (plasma, LC/MS/MS); type: in vivo, rat; conditions: 50 mg/kg P.O.; for Cmax: plasma, 50 mg/kg
Description: Male SD rats (weighing 250-300 g, Charles River Laboratories) were used for the experiment with n=4 rats for each experimental group. […] Blood was collected at the following time points after administration: 15, 30, 60, 90 minutes, 3, 6, 12 and 24 hours. A pre-dose sample was also collected. Animals were cannulated by technical staff at Charles River, prior to delivery at Reset. Whole blood (0.3 ml) was collected from a cannula in the right common jugular vein at each time-point. The whole blood was transferred to an EDTA tube, and then centrifuged at 5400 rpm for 5 minutes at 4° C. The resultant plasma was frozen using dry ice and then stored at −80° C. until ready for assay. 0.9% Sodium Chloride (0.3 ml) was administered for fluid replenishment after each blood draw. 0.1 ml of Sodium Heparin (500 IU/ml) was used as a lock solution after the 12 hr time-point. Samples were assayed as described above.

[2] = tested on: db/db mouse model of type II diabetes; assay: Single dose at peak or nadir of clock gene expression, OGTT in db/db mice; type: in vivo
From the text: Mice were split into two study arms, to be dosed at either the peak or nadir of Cry1 and Bmal1 gene expression. […] Mice dosed at ZT10 were fasted beginning at 8:30 am in the same manner.
Significance was accepted when p<0.05.

[3] = tested on: core clock gene mRNAs in liver of Balb/c mice; assay: 24 hour gene expression study, liver mRNA by RT-qPCR, Balb/c mice; type: in vivo, mouse; conditions: 50 mg/kg BID PO
Description: E.Z.N.A.® HP Total RNA Isolation Kits (R6812-01 and the protocol described in the Manual, Revised 2010) were utilized to prepare and isolate RNA from the liver samples. To prepare the RNA samples, 10-30 mg of sample was removed from RNA-Later and placed in a 1.5 ml microfuge tube. GTC lysis buffer (700 μl) was added to the tissue, which was homogenized with a rotor-stator homogenizer (e.g. Tissue-Tearor, Model #985370 BioSpec Products with 4.5 mm probe, Cat. #985370-04), and then centrifuged at full speed (>13,000×g) for 5 minutes. The cleared supernatant was transferred by pipetting to a DNA Clearance Column Pre-inserted in a 2 mL Collection Tube. The assembled column was centrifuged at 13,000×g for 1 minute, and the flow-through was saved. An equal volume (700 μl) of 70% ethanol was added to the lysate and mixed. The sample was then applied to a HiBind RNA spin column placed into a 2 ml collection tube, which was centrifuged at 10,000×g for 60 seconds at room temperature. RNA Wash Buffer I (250 μl) was added by pipetting directly onto a new HiBind RNA column inserted in a 2 ml collection tube. The assembled column was centrifuged at 10,000×g for 60 seconds. The RNA column was placed into a new 2 ml collection tube. DNase I stock solution is pipetted (75 μl) directly onto the surface of the HiBind RNA resin in each column (Using DNAse Digestion with RNase Free DNase Set (E1091): for each HiBind RNA column, the DNase I stock solution was prepared as followed: E.Z.N.A.® DNase I Digestion Buffer 73.5μl, RNase Free DNase I (20 Kunitz/μl) 1.5 μl=Total Volume 75 μl.). The column with bound RNA was incubated at room temperature (25-30° C.) for 15 minutes. RNA Wash Buffer I (500 μl) was added to the column and placed on a bench top for 2 minutes. After centrifuging at 10,000×g for 60 seconds, discarding the flow-through, 500 μl of RNA Wash Buffer II was added and centrifuged at 10,000×g for 60 seconds. Another 500 μl of RNA Wash Buffer II was added and the column assembly was centrifuged at 10,000×g for 60 seconds. The column was centrifuged for 2 minutes at maximum speed to completely dry the HiBind matrix. […]
RediPlate 96 RiboGreen RNA Quantification Kit (Invitrogen) RediPlate standard curve was prepared by transferring 20 μl reconstituted RNA standard to a RediPlate well reconstituted in 180 μl RediPlate TE buffer. […] After transferring 5 μl to RediPlate well reconstituted in 195 μl TE buffer and incubating 10 min. at RT, Fluorescence Intensity of wells with standards and samples were read in a Tecan M200 with Excitation set at 480 nm and Emission set at 520 nm with the gain set to −70%. […] A standard curve was generated in GraphPad Prism and sample readings (unknowns) are interpolated via linear regression analysis, and the RNA sample concentrations were calculated. […]

**Q.** Which results are given for `O=C1NCCN1CC(O)Cn1c2ccc(F)cc2c2cc(F)ccc21` (centres unmarked) [Compound 72, 1-(3-(3,6-difluoro-9H-carbazol-9-yl)-2-hydroxypropyl)imidazolidin-2-one]?
**A.** Tmax ([1]; male, SD, po, rat plasma): 1.7 h; half-life ([1]; male, SD, po, rat plasma, read-out: Elimination T1/2 (converted)): 1.87 h; MRT last ([1]; male, SD, po, rat plasma, read-out: MRT (0-last, hr)): 4.94 h; Cmax ([1]; male, SD, rat, po, rat plasma, read-out: Cmax): 7100 ng/mL; Cmax ([1]; male, SD, rat, po, rat, read-out: Cmax (plasma)): 7100 ng/mL; Cmax ([1]; male, SD, rat, po, rat, unbound, read-out: Cmax UB (plasma)): 277 ng/mL; % AUC extrapolated ([1]; rat plasma): 3.3%; AUC (total; ng · hr/mL) ([1]; rat plasma): 57952 ng·h/mL; Unbound Plasma AUC (0-last) ([1]; rat): 2259; effect on OGTT measurement, dosed at peak of Cry1 and Bmal1 expression ([2]; single dose 50 mg/kg PO at ZT0): apparent effect; effect on OGTT measurement, dosed at nadir ([2]; single dose 50 mg/kg PO at ZT10): no effect; glucose AUC calculated from the OGTT ([2]; single dose 50 mg/kg PO at peak (ZT0), mean+/-S.E.M.): 63842+/−4318; reduction in glucose excursion (AUC) ([2]; single dose 50 mg/kg PO at peak (ZT0), vs vehicle): 14%; Cry2 mRNA daytime peak in liver [3]: strongly attenuated; Bmal1 mRNA in liver ([3]; at ZT8 and 32 hours after original ZT0): substantially increased; Cry1 mRNA in liver ([3]; peak of expression in dark period): suppressed; Per2 mRNA in liver over 24 hours ([3]; vs vehicle): suppressed
